A value given as a limit tells only on which side of the number the result lay.

The first assay has as its system p21 induction in HCT 116 cells. Put plainly: p21 induction in cells (In-Cell Western, p21/GAPDH ratio). Type of assay: cell-based. The note with it: 24 h compound incubation, read-out: p21_EC50. The protocol:
The colon carcinoma cell line HCT 116 was obtained from ATCC and cultured in growth medium consisting of Mccoy's 5A Medium (Gibco 16600108) supplemented with 10% FBS (Transgene FS201-02) and 100 units/mL penicillin-streptomycin (Gibco 15140122) and maintained at 37° C. under 5% CO2. On the day of seeding, 2,000 cells in 30 μL of culture media were plated per well to Poly-D-Lysine 384 Well Black Clear Plates (Biocoat 356663) and incubated overnight at 37° C. under 5% CO2. The following day, compounds were serially diluted in DMSO for a total of 11 test concentrations. The typical starting concentration of compounds was 10 μM with 2-fold dilutions. Next, 150 nL of diluted compound was added in duplicate to the assay plate, using an Echo 655 (Labcyte). The plate was centrifuged at 500 RPM for 1 min and then incubated at 37° C. under 5% CO2 for 24 h. After 24 h, medium was removed, and cells were fixed by adding 40 μL of 4% paraformaldehyde solution to each well and incubated for 20 min at room temperature. The plate was then washed 4 times with 100 μL per well of wash buffer (PBS with 0.1% Tween-20) using a microplate washer. Next, 30 μL of ice-cold methanol was added to each well and the plate was incubated at −20° C. for 10 min. The plate was washed 4 times with 100 μL per well of wash buffer by a microplate washer, then 30 μL per well of blocking buffer ((Intercept PBS blocking buffer (LI-COR 927-70001) with 0.05% Tween-20)) was added and the plate was incubated at room temperature with shaking for 2 h. Next, to each test well, 20 μL of primary antibody solution (p21 Wafl/CIP (12D1) RabbitmAb (Cell Signaling Technologies 2947) diluted 1:1000 and GAPDH (D4C6R) Mouse mAb (Cell Signaling Technologies 97166) diluted 1:2000 in blocking buffer) was added and the plate was placed at 4° C., overnight. The following day, the plate was washed 5 times with 100 μL per well of wash buffer using a microplate washer for 5 min. 20 μL per well of secondary antibody (IRDye 680CW Goat anti-Mouse IgG (H+L) (LI-COR 926-68070) diluted 1:2000 in Blocking Buffer and IRDye 800CW Goat anti-Rabbit IgG (H+L) (LI-COR 926-32211) diluted 1:2000 in Blocking Buffer) was then added and the plate was stored for 2 h in the dark at room temperature with shaking. The plate was then washed 4 times with 100 μL per well of wash buffer again using a microplate washer. Finally, the p21 signal and the GAPDH signal were quantified using a LI-COR Odyssey CLx Imager machine reading at 800 nm and 700 nm, respectively. Each plate contained DMSO control (low control) and an internal reference WRN inhibitor (high control) respectively. For quantitation, the 800 nm/700 nm ratio was calculated for each well to give fold p21 induction and then percent activation for each compound well was calculated as follows (100×(ratio cpd well-ratio low control)/(ratio high control−ratio low control). EC50 values for each compound was generated after non-linear regression curve fitting using commercially available software.
Turning to `CCc1c(N2CCN(C(=O)c3ncnc(C)c3O)[C@H]3CC[C@@H]32)c(=O)c2nn([C@@H]3CC3(F)F)nc2n1CC(=O)Nc1ccc(C(F)(F)F)cc1Cl` (single isomer, unassigned) [Compound I-216], the EC50 is ≤ 500 nM.

The assay is the same for the next values; noted with them: Homo sapiens, 24 h compound incubation, read-out: p21_EC50.
As to `CCc1c(N2CCN(C(=O)c3ncnc(C)c3O)[C@H]3CC[C@@H]32)c(=O)c2nn(-c3ccnc(OC)c3)cc2n1CC(=O)NC12CC(C3CC3)(C1)C2` [Compound I-188, N-{3-cyclopropylbicyclo[1.1.1]pentan-1-yl}-2-{5-ethyl-6-[(1S,6S)-5-(5-hydroxy-6-methylpyrimidine-4-carbonyl)-2,5-diazabicyclo[4.2.0]octan-2-yl]-2-(2-methoxypyridin-4-yl)-7-oxo-2H,4H,7H-pyrazolo[4,3-b]pyridin-4-yl}acetamide], the EC50 fell in the range of 500 to 2000 nM. On to `CCc1c(N2CCN(C(=O)c3ncnc(C)c3O)[C@H]3CC[C@@H]32)c(=O)c2nn(-c3ccnc(C(F)F)c3)nc2n1CC(=O)NC12CC(C3CC3)(C1)C2` [Compound I-182, N-{3-cyclopropylbicyclo[1.1.1]pentan-1-yl}-2-{2-[2-(difluoromethyl)pyridin-4-yl]-5-ethyl-6-[(1S,6S)-5-(5-hydroxy-6-methylpyrimidine-4-carbonyl)-2,5-diazabicyclo[4.2.0]octan-2-yl]-7-oxo-2H,4H,7H-[1,2,3]triazolo[4,5-b]pyridin-4-yl}acetamide], for which the EC50 is ≤ 500 nM. With `CCc1c(N2CCN(C(=O)c3c(F)cnc(OC)c3O)[C@H]3CC[C@@H]32)c(=O)c2nn(C3=CCOCC3)nc2n1CC(=O)NC12CC(C3CC3)(C1)C2` [Compound I-183, N-{3-cyclopropylbicyclo[1.1.1]pentan-1-yl}-2-[2-(3,6-dihydro-2H-pyran-4-yl)-5-ethyl-6-[(1S,6S)-5-(5-fluoro-3-hydroxy-2-methoxypyridine-4-carbonyl)-2,5-diazabicyclo[4.2.0]octan-2-yl]-7-oxo-2H,4H,7H-[1,2,3]triazolo[4,5-b]pyridin-4-yl]acetamide], the EC50 was ≤ 500 nM. On the same count and under the same terms, next, `CCc1c(N2CCN(C(=O)c3ncnc(C)c3O)[C@H]3CC[C@@H]32)c(=O)c2nn(-c3ccnc(OC)c3)nc2n1CC(=O)Nc1ccc(C(F)(F)F)cc1Cl` [Compound I-55, N-[2-chloro-4-(trifluoromethyl)phenyl]-2-{5-ethyl-6-[(1S,6S)-5-(5-hydroxy-6-methylpyrimidine-4-carbonyl)-2,5-diazabicyclo[4.2.0]octan-2-yl]-2-(2-methoxypyridin-4-yl)-7-oxo-2H,4H,7H-[1,2,3]triazolo[4,5-b]pyridin-4-yl}acetamide]: ≤ 500 nM. On to `CCc1c(N2CCN(C(=O)c3ncnc(C)c3O)[C@H]3CC[C@@H]32)c(=O)c2nn(C3=CCN(CC(F)F)CC3)nc2n1CC(=O)NC12CC(C3CC3)(C1)C2` [Compound I-185, N-{3-cyclopropylbicyclo[1.1.1]pentan-1-yl}-2-{2-[1-(2,2-difluoroethyl)-1,2,3,6-tetrahydropyridin-4-yl]-5-ethyl-6-[(1S,6S)-5-(5-hydroxy-6-methylpyrimidine-4-carbonyl)-2,5-diazabicyclo[4.2.0]octan-2-yl]-7-oxo-2H,4H,7H-[1,2,3]triazolo[4,5-b]pyridin-4-yl}acetamide], for which the EC50 was ≤ 500 nM. Regarding `CCc1c(N2CCN(C(=O)c3ncnc(C)c3O)[C@H]3CC[C@@H]32)c(=O)c2nn(C3=CCOCC3)nc2n1CC(=O)NC1CC2(CCC2)C1` [Compound I-197, 2-[2-(3,6-dihydro-2H-pyran-4-yl)-5-ethyl-6-[(1S,6S)-5-(5-hydroxy-6-methylpyrimidine-4-carbonyl)-2,5-diazabicyclo[4.2.0]octan-2-yl]-7-oxo-2H,4H,7H-[1,2,3]triazolo[4,5-b]pyridin-4-yl]-N-{spiro[3.3]heptan-2-yl}acetamide], the EC50 was ≤ 500 nM. With `CCc1c(N2CCN(C(=O)c3ncnc(C)c3O)[C@H]3CC[C@@H]32)c(=O)c2nn(-c3ccnc(C(F)(F)F)c3)nc2n1CC(=O)NC12CC(C3CC3)(C1)C2` [Compound I-176, N-{3-cyclopropylbicyclo[1.1.1]pentan-1-yl}-2-{5-ethyl-6-[(1S,6S)-5-(5-hydroxy-6-methylpyrimidine-4-carbonyl)-2,5-diazabicyclo[4.2.0]octan-2-yl]-7-oxo-2-[2-(trifluoromethyl)pyridin-4-yl]-2H,4H,7H-[1,2,3]triazolo[4,5-b]pyridin-4-yl}acetamide], the EC50 is ≤ 500 nM. As to `CCc1c(N2CCN(C(=O)c3c(O)c(F)cc4ncoc34)[C@H]3CC[C@@H]32)c(=O)c2nn(C3=CCOCC3)nc2n1CC(=O)NC12CC(C3CC3)(C1)C2` [Compound I-194, N-{3-cyclopropylbicyclo[1.1.1]pentan-1-yl}-2-[2-(3,6-dihydro-2H-pyran-4-yl)-5-ethyl-6-[(1S,6S)-5-(5-fluoro-6-hydroxy-1,3-benzoxazole-7-carbonyl)-2,5-diazabicyclo[4.2.0]octan-2-yl]-7-oxo-2H,4H,7H-[1,2,3]triazolo[4,5-b]pyridin-4-yl]acetamide], the EC50 is ≤ 500 nM.

`CCc1c(N2CCN(C(=O)c3ncnc(C)c3O)[C@H]3CC[C@@H]32)c(=O)c2nn(C3=CCOCC3)nc2n1CC(=O)NC12CC(C(C)(C)C)(C1)C2` [Compound I-196, N-{3-tert-butylbicyclo[1.1.1]pentan-1-yl}-2-[2-(3,6-dihydro-2H-pyran-4-yl)-5-ethyl-6-[(1S,6S)-5-(5-hydroxy-6-methylpyrimidine-4-carbonyl)-2,5-diazabicyclo[4.2.0]octan-2-yl]-7-oxo-2H,4H,7H-[1,2,3]triazolo[4,5-b]pyridin-4-yl]acetamide]: the EC50 is ≤ 500 nM. Consider `CCc1c(N2CCN(C(=O)c3ncnc(C)c3O)[C@H]3CCC[C@@H]32)c(=O)c2nn(C3=CCOCC3)nc2n1CC(=O)NC12CC(C3CC3)(C1)C2` [Compound I-39, 2-{6-[(4aS,7aS)-4-(5-hydroxy-6-methylpyrimidine-4-carbonyl)-octahydro-1H-cyclopenta[b]pyrazin-1-yl]-2-(3,6-dihydro-2H-pyran-4-yl)-5-ethyl-7-oxo-2H,4H,7H-[1,2,3]triazolo[4,5-b]pyridin-4-yl}-N-{3-cyclopropylbicyclo[1.1.1]pentan-1-yl}acetamide], for which the EC50 is ≤ 500 nM. With `CCc1c(N2CCN(C(=O)c3ncnc(C)c3O)[C@H]3CC[C@@H]32)c(=O)c2nn(-c3ccn(C4CC4)n3)nc2n1CC(=O)NC12CC(C(C)C)(C1)C2` [Compound I-60, 2-[2-(1-cyclopropyl-1H-pyrazol-3-yl)-5-ethyl-6-[(1S,6S)-5-(5-hydroxy-6-methylpyrimidine-4-carbonyl)-2,5-diazabicyclo[4.2.0]octan-2-yl]-7-oxo-2H,4H,7H-[1,2,3]triazolo[4,5-b]pyridin-4-yl]-N-[3-(propan-2-yl)bicyclo[1.1.1]pentan-1-yl]acetamide], the EC50 was ≤ 500 nM. For `CCc1c(N2CCN(C(=O)c3c(COC)cccc3OC)[C@H]3CC[C@@H]32)c(=O)c2nn(C3=CCOCC3)nc2n1CC(=O)NC12CC(C3CC3)(C1)C2` [Compound I-212, N-{3-cyclopropylbicyclo[1.1.1]pentan-1-yl}-2-[2-(3,6-dihydro-2H-pyran-4-yl)-5-ethyl-6-[(1S,6S)-5-[2-methoxy-6-(methoxymethyl)benzoyl]-2,5-diazabicyclo[4.2.0]octan-2-yl]-7-oxo-2H,4H,7H-[1,2,3]triazolo[4,5-b]pyridin-4-yl]acetamide], the EC50 lay in the range of 500 to 2000 nM.

Source of the values: US20250129069A1, “TRIAZOLO WRN INHIBITORS” (Nimbus Wadjet, Inc., priority 2023, published 2025).
